Experimental findings from patent US9771369B2, “Compounds and methods for kinase modulation, and indications therefor” (Plexxikon Inc., priority 2014, dated 2017) are described below.

A word on the IC50: it is the concentration that inhibits the measured activity by half. Read a high IC50 as weaker potency in that assay.

One test has as its target c-Kit kinase (Homo sapiens (Human), UniProt P10721). Nature of the test: c-Kit biochemical assay (AlphaScreen kinase activity). Here is the method: Assays for biochemical cell-based activity of c-kit kinase are known in the art, for example, as described in U.S. Pat. Nos. 7,498,342 and 7,846,941, the disclosures of which are hereby incorporated by reference as it relates to such assays. The c-kit (or kinase domain thereof) is an active kinase in AlphaScreen. IC50 values are determined with respect to inhibition of c-Kit kinase activity, where inhibition of phosphorylation of a peptide substrate is measured as a function of compound concentration. Compounds to be tested were dissolved in DMSO to a concentration of 30 mM. These were diluted 30 μl into 130 μl of DMSO (4 mM) and 1 μl was added to an assay plate. These were then serially diluted 1:3 (50 μl to 100 μl DMSO) for a total of 8 points. Plates were prepared such that each kinase reaction is 30 μl in 1× kinase buffer (50 mM HEPES, pH 7.2, 5 mM MgCl2, 5 mM MnCl2, 0.01% NP-40, 0.2% BSA), 5% DMSO and 10 μM ATP. Substrate was 100 nM biotin-(E4Y)3 (Open Source Biotech, Inc.). C-kit kinase was at 0.1 ng per sample. After incubation of the kinase reaction for 1 hour at room temperature, 5 μl of donor beads (Streptavidin coated beads (Perkin Elmer Life Science) final concentration 1 μg/ml) in stop buffer (50 mM EDTA in 1× kinase buffer) was added, the sample was mixed and incubated for 30 minutes at room temperature before adding […] of acceptor beads (PY30 coated beads (Perkin Elmer Life Science) final concentration 1 μg/ml) in stop buffer. The samples were incubated for 60 minutes at room temperature and the signal per well was read on AlphaQuest reader. Phosphorylated substrate results in binding of the PY30 antibody and association of the donor and acceptor beads such that signal correlates with kinase activity. The signal vs. compound concentration was used to determine the IC50.
Compounds were also tested using a similar assay with a 10-fold higher ATP concentration. For these samples, compounds to be tested were dissolved in DMSO to a concentration of 30 mM. These were diluted 30 μl into 130 μl of DMSO (4 mM) and 1 μl was added to an assay plate. These were then serially diluted 1:3 (50 μl to 100 μl DMSO) for a total of 8 points. Plates were prepared such that each kinase reaction is 30 μl in 1× kinase buffer (25 mM HEPES, pH 7.5, 2 mM MgCl2, 2 mM MnCl2, 0.01% […], 1 mM DTT, and 0.001% BSA), 5% DMSO and 100 μM ATP. Substrate was 30 nM biotin-(E4Y)10 (Upstate Biotech, Cat#12-440). C-kit kinase was at 1 ng per sample. After incubation of the kinase reaction for 1 hour at room temperature, 5 μl of donor beads (Streptavidin coated beads (Perkin Elmer Life Science) final concentration 10 μg/ml) in stop buffer (25 mM HEPES pH 7.5, 100 mM EDTA, 0.3% BSA) was added, the sample was mixed and incubated for 30 minutes at room temperature before adding 5 μl of acceptor beads (PY30 coated beads (Perkin Elmer Life Science) final concentration 10 μg/ml) in stop buffer. The samples were incubated for 60 minutes at room temperature and the signal per well was read on AlphaQuest or Envision reader (Perkin Elmer Life Science). Phosphorylated substrate results in binding of the PY30 antibody and association of the donor and acceptor beads such that signal correlates with kinase activity. The signal vs. compound concentration was used to determine the IC50.
The c-kit enzyme used in the above assay was either obtained from Cell Signaling Technology (Cat. #7754) or was prepared as follows: A plasmid encoding kit (DNA and encoded protein sequences shown below) was engineered using common polymerase chain reaction (PCR) methods. Complementary DNA cloned from various human tissues were purchased from Invitrogen, and these were used as substrates in the PCR reactions. Specific custom synthetic oligonucleotide primers were designed to initiate the PCR product, and also to provide the appropriate restriction enzyme cleavage sites for ligation with the plasmids. […]
Background: Bead proximity is the source of the signal in Alpha formats.

Test [1] deals with BaF3-FL KIT D816V or BaF3-FL KIT V560G/D816V cell line. Nature of the test: Cell-based assays of c-Kit mutant kinase activity (cell proliferation, ATPlite). The settings on record: at least one of the c-kit cell assays of Example 7. The procedure: The c-Kit mutant D816V inhibitors were assessed using an engineered BaF3-FL KIT D816V or BaF3-FL KIT V560G/D816V cell line. The BaF3-FL KIT D816V cell lines were created by introduction of KIT mutant (D816V) full length constructs that render the cells dependent on the introduced kinase for growth. Inhibitors of c-Kit mutant D816V kinase reduce or eliminate the mediated c-kit mutant D816V kinase activation, resulting in reduced cell proliferation of the BaF3-FL Kit mutant D816V cells. This inhibition is measured by the effect of compound concentration on cell growth to assess IC50 values. BaF3-FL KIT D816V cells were seeded at 1×10^4 cells per well of a 96 well cell culture plate in 50 μl of cell culture medium of RPMI Medium 1× (Invitrogen #11875-093) supplemented with 10% FBS (Invitrogen #10438), 1% Non Essential Amino Acids (Invitrogen #11140), 1% Penicillin Streptomycin (Invitrogen #15140), 1% L-Glutamine (Invitrogen #25030-081). Compounds were dissolved in DMSO at a concentration of 5 mM and were serially diluted 1:3 for a total of eight points and added to the cells to a final maximum concentration of 10 μM in 100 μl cell culture medium (final concentration 0.2% DMSO). Cells were also treated with Dasatinib as a positive control. The cells were incubated at 37° C., 5% CO2 for three days. ATPlite Buffer (Perkin Elmer #6016739) and substrate were equilibrated to room temperature, and enzyme/substrate Recombinant Firefly Luciferase/D-Luciferin was reconstituted. The cell plates were equilibrated to room temperature for 30 minutes, then lysed by addition of 25 μL per well of the ATPlite Reagent. The plate was mixed for 5 minutes on a plate shaker to lyse the cells. The plates were read on a Tecan Safire using Luminescence protocol modified to read 0.1s per well. The luminescence reading assesses the ATP content, which correlates directly with cell number such that the reading as a function of compound concentration is used to determine the IC50 value.
Plasmids P75635 and P75565 were engineered for mammalian cell expression. In both plasmids, full-length human v-kit Hardy-Zuckerman 4 feline sarcoma viral oncogene homolog gene (NCBI accession NM_000222, KIT, residues M1-V976) was subcloned into the pCI-Neo vector (Promega E1841). Plasmid P75635 contains the mutation of residue Aspartic acid 816 to Valine. Plasmid P75565 contains the double mutation of residues Valine 560 to Glycine and Aspartic acid 816 to Valine. The pCI-neo Mammalian Expression Vector carries the human cytomegalovirus (CMV) immediate-early enhancer/promoter region to promote constitutive expression of KIT and contains the neomycin phosphotransferase gene, a selectable marker.
It is understood that the results of these assays may vary as assay conditions are varied. Inhibition levels determined under the conditions described herein represent a relative activity for the compounds tested under the specific conditions employed. The cell based assays are likely to show variability due to the complexity of the system and the sensitivity thereof to any changes in the assay conditions. […] In some instances, the compounds were not tested in all of the assays, or assay results were not valid.
On the technique in general: Cellular ATP, detected with luciferase, serves as a proxy for viable cell number.

The next test addresses c-kit mutant D816V (Homo sapiens (Human), UniProt P10721, D816V/DEL694-753). Put plainly: c-Kit mutant D816V biochemical assay (AlphaScreen kinase activity). The procedure: The c-kit mutant D816V (or kinase domain thereof) is an active kinase in AlphaScreen. IC50 values are determined with respect to inhibition of c-Kit mutant D816V kinase activity, where inhibition of phosphorylation of a peptide substrate is measured as a function of compound concentration. Compounds to be tested were dissolved in DMSO to a concentration of 30 mM. These were diluted […] of DMSO (4 mM) and 1 μl was added to an assay plate. These were then serially diluted 1:3 (50 μl to […] DMSO) for a total of 8 points. Plates were prepared such that each kinase reaction is […] in 1× kinase buffer (25 mM HEPES, pH 7.2, 8 mM MgCl2, 2 mM MnCl2, 50 mM NaCl, 0.01% Brij, 1 mM DTT, 0.01% BSA), 5% DMSO and 10 μM ATP. Substrate was 30 nM biotin-(E4Y)10 (EMD Millipore, Cat#12-440). C-kit mutant D816V kinase was at 0.75 ng per sample. After incubation of the kinase reaction for 30 minutes at room temperature, 5 μl of donor beads (Streptavidin coated beads (Perkin Elmer Life Science) final concentration 7.5 μg/ml) in stop buffer (25 mM Hepes pH 7.5, 100 mM EDTA, 0.01% BSA) was added, the sample was mixed and incubated for 30 minutes at room temperature before adding […] of acceptor beads (PY30 coated beads (Perkin Elmer Life Science) final concentration 7.5 μg/ml) in stop buffer. The samples were incubated for 60 minutes at room temperature and the signal per well was read on EnVision reader. Phosphorylated substrate results in binding of the PY30 antibody and association of the donor and acceptor beads such that signal correlates with kinase activity. The signal vs. compound concentration was used to determine the IC50.
Recombinant c-kit mutant D816V (residues 551-934, kinase insertion domain residues 694-753 deleted) with a 6×-histidine N-terminal tag (SEQ ID NO: 3) was expressed in E. coli Arctic Express (DE3) RIL (Stratagene). Cells were grown in Terrific Broth (TB) media to an OD600 of 0.6 at 37° C. at which temperature was reduced to 10° C., protein was induced with 1.0 mM IPTG for 18 hours and harvested by centrifugation at 8000×g for 30 minutes. Cells were re-suspended in 0.1M KPO4 pH 8.0, 250 mM NaCl, 10% Glycerol, 0.75% NP-40, 25 mM Imidazole, 5 mM BME with 0.2 mg/ml Lysosyme, 2.0 mM PMSF, 25 μg/ml DNAse I, incubated in ice for 30 minutes and lyzed with a cell disruptor (MicroFluidics). The lysate was clarified by centrifugation at 30,000×g for 2 hours. The protein was captured with Talon resin (Clontech). Contaminating proteins were washed off with 25 mM Tris-HCl pH 8.3, 250 mM NaCl, 15% Glycerol, 1% Triton X-100, and protein eluted using 100 mM EDTA. The protein was further purified using Gel Filtration column 26/600 Superdex 300 (GE) in 50 mM Tris-HCl , pH 8.0, 250 mM NaCl, 15% Glycerol, 5 mM BME. The protein was aliquoted and flash-frozen in liquid Nitrogen.

c-kit mutant D816V, sequence (P10721 other isoform, or with tags, fused parts or gaps D816V/del 694-753): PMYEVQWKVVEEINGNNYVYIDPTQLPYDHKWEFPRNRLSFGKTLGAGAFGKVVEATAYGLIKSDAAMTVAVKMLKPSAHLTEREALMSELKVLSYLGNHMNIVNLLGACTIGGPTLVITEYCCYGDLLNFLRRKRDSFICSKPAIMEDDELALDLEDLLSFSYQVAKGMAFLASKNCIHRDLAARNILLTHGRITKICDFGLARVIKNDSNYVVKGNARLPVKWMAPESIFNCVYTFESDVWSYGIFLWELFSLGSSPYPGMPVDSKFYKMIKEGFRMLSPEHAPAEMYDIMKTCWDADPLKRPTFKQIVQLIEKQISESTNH
c-Kit kinase, sequence (P10721 26-976): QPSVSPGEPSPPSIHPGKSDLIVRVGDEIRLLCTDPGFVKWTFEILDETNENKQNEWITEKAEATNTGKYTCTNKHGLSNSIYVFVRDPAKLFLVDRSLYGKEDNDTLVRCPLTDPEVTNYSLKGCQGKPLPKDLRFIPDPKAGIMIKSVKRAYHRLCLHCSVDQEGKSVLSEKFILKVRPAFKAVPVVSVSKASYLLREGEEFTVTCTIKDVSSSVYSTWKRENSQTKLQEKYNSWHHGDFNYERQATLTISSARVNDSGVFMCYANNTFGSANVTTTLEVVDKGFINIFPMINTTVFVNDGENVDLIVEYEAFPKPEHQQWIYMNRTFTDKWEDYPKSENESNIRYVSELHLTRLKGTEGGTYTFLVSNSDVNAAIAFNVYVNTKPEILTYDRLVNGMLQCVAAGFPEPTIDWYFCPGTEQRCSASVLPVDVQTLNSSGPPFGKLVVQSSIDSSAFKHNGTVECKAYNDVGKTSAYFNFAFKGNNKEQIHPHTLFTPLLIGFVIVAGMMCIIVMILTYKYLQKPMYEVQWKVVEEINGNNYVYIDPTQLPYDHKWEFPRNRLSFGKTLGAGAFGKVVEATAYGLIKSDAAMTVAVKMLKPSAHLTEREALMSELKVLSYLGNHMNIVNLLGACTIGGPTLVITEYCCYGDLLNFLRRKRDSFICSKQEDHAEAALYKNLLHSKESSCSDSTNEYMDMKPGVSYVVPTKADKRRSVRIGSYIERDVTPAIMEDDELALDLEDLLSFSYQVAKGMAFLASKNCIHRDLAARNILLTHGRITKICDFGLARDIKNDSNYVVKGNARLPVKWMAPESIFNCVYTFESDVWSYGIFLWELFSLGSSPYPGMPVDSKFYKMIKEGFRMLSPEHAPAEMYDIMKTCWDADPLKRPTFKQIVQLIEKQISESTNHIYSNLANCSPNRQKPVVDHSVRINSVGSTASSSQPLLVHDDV

`Cc1[nH]c(C2CCN(c3ncnc4[nH]c(-c5ccncc5)cc34)CC2)nc1-c1ccccc1` [P-3001, 4-[4-(5-methyl-4-phenyl-1H-imidazol-2-yl)-1-piperidyl]-6-(4-pyridyl)-7H-pyrrolo[2,3-d]pyrimidine]: the IC50 against c-Kit kinase is 0.0001 to 1 µM; in test [1] it was less than 10 µM.

Take `Cc1nc(C2CCN(c3ncnc4[nH]c(-c5cccc(Cl)c5)cc34)CC2)[nH]c1-c1ccccc1` [P-3082, 6-(3-chlorophenyl)-4-[4-(4-methyl-5-phenyl-1H-imidazol-2-yl)-1-piperidyl]-7H-pyrrolo[2,3-d]pyrimidine]: the concentration for half-maximal inhibition (IC50) is 0.0001 to 1 µM on c-kit mutant D816V and less than 10 µM in test [1].

With `COc1cc(-c2[nH]c(C3CCN(c4ncnc5[nH]c(-c6ccc(F)cc6)cc45)CC3)nc2C)ccc1C` [P-3103, 6-(4-fluorophenyl)-4-[4-[5-(3-methoxy-4-methyl-phenyl)-4-methyl-1H-imidazol-2-yl]-1-piperidyl]-7H-pyrrolo[2,3-d]pyrimidine], the IC50 against c-kit mutant D816V was 0.0001 to 1 µM; at c-Kit kinase, 1 to 10 µM.

Regarding `COc1ccc(-c2[nH]c(C3CCN(c4ncnc5[nH]c(-c6ccc(F)cc6)cc45)CC3)nc2C(F)(F)F)cc1` [P-3147, 6-(4-fluorophenyl)-4-[4-[5-(4-methoxyphenyl)-4-(trifluoromethyl)-1H-imidazol-2-yl]-1-piperidyl]-7H-pyrrolo[2,3-d]pyrimidine], the IC50 at c-kit mutant D816V is 0.0001 to 1 µM; in test [1], less than 10 µM.

Consider `Cc1cc2c(N3CCC(C)(c4nc(C)c(-c5ccc(Cl)cc5)[nH]4)CC3)ncnc2[nH]1` [P-3174, 4-[4-[5-(4-chlorophenyl)-4-methyl-1H-imidazol-2-yl]-4-methyl-1-piperidyl]-6-methyl-7H-pyrrolo[2,3-d]pyrimidine], for which the IC50 against c-kit mutant D816V is 0.0001 to 1 µM; in test [1], less than 10 µM.
